Test results reported in US20230172874A1, “USE OF CANNABIDIOL FOR THE TREATMENT OF INSOMNIA ASSOCIATED TO PAIN” (priority 2021, published 2023).
“Also recorded” adds a separate entry of the source.

What was measured:
rats = details: rat, in vivo; cited from earlier work
neuropathic rats [1] = assay: EEG/EMG recording of wakefulness, NREM and REM sleep in neuropathic rats; type: in vivo, male Wistar rats; details: for REM sleep (total time), relative to NP rats treated with vehicle / total NREM sleep, relative to NP rats treated with vehicle / total time of wakefulness, relative to NP rats treated with vehicle: WAY 100635 2 mg/kg; for block of the hypnotic effects of CBD (20 mg/kg): WAY 100635 2 mg/kg i.p. 10 min before CBD
Experimental: Animals. The experiments were performed on male Wistar rats weighing 250 g (six weeks). All animals were housed in standardized animal facilities under a 12 h light/dark cycle (lights on at 7 AM) with ad libitum access to food and water. All surgeries and experimental procedures were performed during the light cycle. Experimental protocols were approved by the Animal Ethics Committee of the local institutional committee for animal use and care (McGill University, Qc, Canada). These protocols follow ethical guidelines for investigation of experimental pain in conscious animals of the IASP, the Canadian Institute of Health Research guidelines for animal care and scientific use.
Spared nerve injury (SNI). SNI was performed according to the method of Decosterd and Woolf^35. Rats were deeply anaesthetized with isofluorane (5%), anaesthesia was confirmed by the absence of a nociceptive reflex reaction to a paw pinch. The sciatic nerve was exposed at mid-thigh level distal to the trifurcation and freed of connective tissue; the three peripheral branches (sural, common peroneal, and tibial nerves) of the sciatic nerve were exposed without stretching nerve structures. Both tibial and common peroneal nerves were ligated and transected together. Carprofen (5 mg/kg) was administrated subcutaneously pre-surgery as well as three days every 24 hours post-surgery as analgesic. After SNI, each rat was housed in its home cage for 15 days until the neuropathy is developed.
EEG/EMG Implantation. Neuropathic rats (10 days after surgery) and naïve rats were placed in a stereotaxic frame following isoflurane-induced anesthesia (5%). Anaesthesia was confirmed by the absence of a nociceptive reflex reaction to a paw pinch. For EEG monitoring, three stainless-steel epidural electrodes were positioned through 1.5 mm burr holes: one over the parietal cortex on each side, and the third (as a reference) in the right prefrontal cortex. In rats, their respective locations relative to bregma were −2 mm anteroposterior (AP) and −3 mm lateral (L), −7 mm AP and −3 mm L, and −4.5 mm AP and +3 mm L, according to Paxinos and Watson. For EMG monitoring, three flexible stainless-steel wire electrodes, silicon insulation removed at the terminal 3-4 mm, were implanted into the neck muscles (two bilaterally and one in the middle). Wires were fused with the electrodes and the connectors were fixed to the skull with dental acrylic (Coltene/Whaledent). Carprofen (10mg/kg) was administrated subcutaneously pre-surgery as well as three days every 24 hours post-surgically as analgesic. Each rat was single-caged post-surgery and allowed to recover for the next 5 days^13. 24 hours after surgery, the rats were placed in the recording chamber and connected to a flexible 6-flat wire (3M Scotchflex™) in a freely moving manner for several hours during the subsequent 5 days. No recordings were performed, but tolerance to the cable and sleep behavior were observed. All rats from a home cage were also grouped for one hour each day for socialization to circumvent anxious-depressive-like behavior induced by social isolation^13.
Study design for EEG and EMG assessment. […] […] In another cohort of rats rimonabant (1 mg/kg) was also injected i.p. at 6 A.M. in neuropathic rats.
(§1) EEG and EMG recording. Six days after surgery (16 days post-SNI), mechanical allodynia was assessed via von Frey test, and EEG/EMG was recorded for a period of 6 h (from 6 AM to 12 PM). The treatments (described below) were performed at 6:00 A.M., right after the recording had started. […] Consecutive 10 s epochs were subjected to a fast Fourier transform (FFT), and EEG power spectra density was computed in the frequency range of 0-64 Hz^13.
Analysis of EEG and EMG data. The three classical vigilance states as described in the rat were discriminated on the basis of the cortical EEG and neck EMG activities. […]

neuropathic rats [2] = assay: EEG power spectra (delta, theta, sigma bands) during NREM and REM sleep; type: in vivo, male Wistar rats
Experimental: as §1
To determine the variations in power spectra induced by the pharmacological treatment of CBD and antagonists, the power densities were summed up over the frequency band of 0-25 Hz (total power). The data were then standardized by expressing all power spectral densities at the different 0.5 Hz bin frequency ranges (delta, theta, and sigma) as a percentage relative to the total power of the same epoch^16. Frequency ranges were 0-3.5Hz for delta, 4-8.5Hz for theta, and 11-14 Hz for sigma bands. The sum of power densities over a frequency band following treatments were expressed as the percentage difference from that in or naïve+veh or NP+vehicle group in statistical analysis. In the experiments with WAY 100635 the NP+CBD was compared with NP+vehicle, NP+WAY, NP+WAY+CBD.
To assess whether CBD (20 mg/kg) might affect the microarchitecture during the sleep, the intensity Delta (0.5-4 Hz), Theta ([…]) and Sigma (10-15 Hz) waves were measured during 6 hours of light phase in the 3 groups of rats (Naïve, SNI+VEH and SNI+CBD 20mg/kg). Data were converted as a percentage of variation vs. naive animals and One-way ANOVA was performed on the power of delta, theta and sigma waves during NREM and REN sleep.
To assess whether the 5-HT1A selective antagonist WAY 100635 (2 mg/kg) might reverse the effect of CBD (20 mg/kg) in the enhancement of power density (Delta, Theta, and Sigma waves) during sleep, the power spectra were measured for 6 hours in four groups of rats. The first group were NP rats treated with CBD vehicle (n=8), the second group were NP rats treated with WAY 100635 alone at 2 mg/kg (n=6), the third group were NP rats treated with WAY 100635 (2 mg/kg)+CBD (20 mg/kg; n=6), and the fourth group were NP treated with CBD at 20 mg/kg (n=8). Data were converted as a percentage of variation vs NP animals treated with vehicle.

[3] = 6 h EEG/EMG, i.p., CBD 20 mg/kg, rimonabant 1 mg/kg
[4] = NP rats, 6 h EEG/EMG, i.p., CBD 20 mg/kg, rimonabant 1 mg/kg
[5] = 6 h EEG/EMG, i.p., CBD 20 mg/kg
[6] = 6 h EEG/EMG, i.p., CBD 20 mg/kg, listed as WAY

## Cc1c(C(=O)NN2CCCCC2)nn(-c2ccc(Cl)cc2Cl)c1-c1ccc(Cl)cc1 [Rimonabant]
rats
  time spent in NREM sleep: reducing the time spent in NREM sleep and REM sleep
  time spent in REM sleep: reducing the time spent in NREM sleep and REM sleep
  time spent in wakefulness: dose-dependently increased the time spent in wakefulness
Neuropathic rats [1]; [3]
  REM sleep (total time), relative to NP rats treated with vehicle: Decrease the Time Spent in REM; also recorded: difference
Neuropathic rats [1]; 6 h EEG/EMG, i.p., CBD 20 mg/kg, rimonabant 1 mg/kg, listed as rimonabant
  REM sleep (total time), relative to NP rats treated with vehicle: reduction of REM sleep time; also recorded: decreases REM sleep
Neuropathic rats [1]; [4]
  REM sleep, relative to naïve animals treated with vehicle: difference
  wakefulness, relative to naïve animals treated with vehicle: difference
Neuropathic rats [1]; NP rats, i.p., CBD 20 mg/kg, rimonabant 1 mg/kg
  reversal of sleep perturbations induced by neuropathic pain (sleep-wake cycle): Does not Reverse the Sleep Perturbations

## COc1ccccc1N1CCN(CCN(C(=O)C2CCCCC2)c2ccccn2)CC1 [WAY 100635]
Neuropathic rats [2]; NP rats, 6 h, CBD 20 mg/kg, WAY 100635 2 mg/kg
  power of Delta waves during REM sleep, between groups (ANOVA): no statistically significant differences between groups
Neuropathic rats [2]; NP rats, WAY 100635 2 mg/kg, p<0.0003
  block of the theta power increase induced by CBD (20 mg/kg) on NREM sleep: able to block the theta power increase induced by CBD
Neuropathic rats [2]; NP rats, WAY 100635 2 mg/kg, p<0.0019
  block of the effects of CBD (20 mg/kg) on Sigma power during REM sleep: blocks the effects of CBD
Neuropathic rats [2]; NP rats, WAY 100635 2 mg/kg, p<0.0048
  block of the Delta power increase induced by CBD (20 mg/kg) on NREM sleep: able to block the Delta power increase induced by CBD
Neuropathic rats [2]; NP rats, WAY 100635 2 mg/kg, p<0.0061
  block of the positive effect of CBD (20 mg/kg) on theta waves during REM sleep: able to block the positive effect of CBD
Neuropathic rats [2]; WAY 100635 2 mg/kg alone (p<0.038) or WAY 100635+CBD (p<0.0006)
  intensity of Sigma waves during NREM sleep, relative to NP animals administered CBD 20 mg/kg: differences were detected
Neuropathic rats [1]; 6 h EEG/EMG, WAY 100635 alone i.p.
  REM sleep, compared to NP rats treated with CBD 20 mg/kg: decrease in REM sleep
Neuropathic rats [1]; [5]
  total NREM sleep, relative to NP rats treated with vehicle: statistically reduced the time spent NREM sleep
  total time of wakefulness, relative to NP rats treated with vehicle: increase in wakefulness
Neuropathic rats [1]; [6]
  total NREM sleep, relative to NP rats treated with vehicle: impaired NREM sleep
  total time of wakefulness, relative to NP rats treated with vehicle: increased wakefulness
Neuropathic rats [1]; [3]
  REM sleep (total time), relative to NP rats treated with vehicle: no statistical difference was detected
Neuropathic rats [1]; 6 h EEG/EMG, i.p., WAY 100635 2 mg/kg alone or 10 min before CBD 20 mg/kg
  total time of wakefulness, relative to NP rats treated with CBD 20 mg/kg: increase in wakefulness
Neuropathic rats [1]; NP rats, 6 h EEG/EMG, WAY 100635 (1 mg/kg) as printed, before CBD, p<0.001
  block of the positive effect of CBD (20 mg/kg) on REM sleep: able to block the positive effect of CBD
Neuropathic rats [1]; NP rats
  block of the hypnotic effects of CBD (20 mg/kg): fully prevented
Neuropathic rats [1]; NP rats, listed as WAY100635
  block of the hypnotic effects of CBD (20 mg/kg): Blocks the Hypnotic Effects of CBD
